Measurements as given in patent publication US20180057505A1, “BICYCLIC HETEROARYL COMPOUNDS USEFUL AS INHIBITORS OF THE PAR-2 SIGNALING PATHWAY” (VERTEX PHARMACEUTICALS INCORPORATED, priority 2015, published 2018).
pIC50: −log10 of the molar value.

How the values were obtained:
Type in all cases: cell-based
[1] = system: UTP-stimulated Ca2+ response in HT-29 cells; experiment: Ca FLIPR TETRA assay, ANTAGONIST mode, activator 0.6 μM UTP; settings: HT-29 cells, activator 0.6 μM UTP
Summary of the method: (§1)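 Antagonist mode, HT-29: cells O/N 37 °C, 1% FBS; calcium 5 dye 45 min 37 °C + 15 min RT; cpd (DMSO, HBSS-diluted) 30 min RT; activator at final conc. (8 μM SLIGKV / 1 U/mL thrombin / 3.1 U/mL trypsin / 0.6 μM UTP); FLIPR Tetra Ca2+ read.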

PAR2 (HT-29 cells) [2] = molecular target: T1, PAR2 (HT-29 cells) (Homo sapiens, UniProt P55085); experiment: Ca FLIPR TETRA assay, ANTAGONIST mode, activator 8 μM SLIGKV; settings: HT-29 cells; activator 8 μM SLIGKV; Method A: maximal concentration of antagonist 0.1, 1 or 2 μM
T1 construct: host or cells: HT-29
T1 sequence (P55085 26-397): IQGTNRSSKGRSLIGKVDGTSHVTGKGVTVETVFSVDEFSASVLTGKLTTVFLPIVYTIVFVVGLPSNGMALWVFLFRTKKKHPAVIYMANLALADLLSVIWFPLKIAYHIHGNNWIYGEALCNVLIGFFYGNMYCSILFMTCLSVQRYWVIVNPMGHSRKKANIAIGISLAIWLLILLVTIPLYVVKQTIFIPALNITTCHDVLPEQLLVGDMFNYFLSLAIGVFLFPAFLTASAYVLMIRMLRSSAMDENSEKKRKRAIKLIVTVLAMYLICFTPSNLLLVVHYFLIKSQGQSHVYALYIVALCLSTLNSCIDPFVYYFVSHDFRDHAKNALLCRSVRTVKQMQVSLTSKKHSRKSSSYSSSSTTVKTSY
Summary of the method: as §1

PAR2 (HT-29 cells) [3] = molecular target: T1, PAR2 (HT-29 cells); experiment: Ca FLIPR TETRA assay, ANTAGONIST mode, activator 3.1 U/mL trypsin; settings: HT-29 cells; activator 3.1 U/mL trypsin; Method A: maximal concentration of antagonist 0.1, 1 or 2 μM
Summary of the method: as §1

[4] = system: Thrombin-stimulated Ca2+ response in HT-29 cells; experiment: Ca FLIPR TETRA assay, ANTAGONIST mode, activator 1 U/mL Thrombin; settings: HT-29 cells, activator 1 U/mL Thrombin
Summary of the method: as §1

CC(C)(C)c1cc(-c2ccc(Cl)c(F)c2)nc2cc(C(=O)N3CCC(CC(=O)O)CC3(C)C)oc12 (stereo not shown) [Example I-299]
pIC50 ([1]; Homo sapiens): 5.77
pIC50 (PAR2 (HT-29 cells) [2]): 9.70
pIC50 (PAR2 (HT-29 cells) [3]): 9.70
pIC50 ([4]; Homo sapiens): < 5.70

CC1(C)CN(C(=O)[C@H]2C[C@@](C)(O)C2)CCN1C(=O)c1cc2nc(-c3ccc(Cl)c(F)c3)cc(C3(C#N)CC(F)(F)C3)c2o1 [Example I-300]
pIC50 ([1]; Homo sapiens): < 5.70
pIC50 (PAR2 (HT-29 cells) [2]): 8.80
pIC50 (PAR2 (HT-29 cells) [3]): 8.80
pIC50 ([4]; Homo sapiens): < 5.70

CCC(CC)c1cc(-c2ccc(F)cc2)nc2cc(C(=O)N3CCN(c4cn[nH]c4)C(=O)C3(C)C)oc12 [Example I-301]
pIC50 ([1]; Homo sapiens): < 5.70
pIC50 (PAR2 (HT-29 cells) [2]): 8.52
pIC50 (PAR2 (HT-29 cells) [3]): 8.40
pIC50 ([4]; Homo sapiens): < 5.70

CCC(CC)c1cc(-c2ccc(F)cc2)nc2cc(C(=O)N3CCN(C#N)C(=O)C3(C)C)oc12 [Example I-302]
pIC50 ([1]; Homo sapiens): < 5.70
pIC50 (PAR2 (HT-29 cells) [2]): 7.85
pIC50 (PAR2 (HT-29 cells) [3]): 7.71
pIC50 ([4]; Homo sapiens): < 5.70

CC(C)(C)c1cc(C2CCC(Cl)(Cl)CC2)nc2cc(C(=O)N3CCN(C(=O)[C@H]4CC[C@@](C)(C(=O)O)CC4)CC3(C)C)oc12 [Example I-303]
pIC50 ([1]; Homo sapiens): 5.74
pIC50 (PAR2 (HT-29 cells) [2]): 9.40
pIC50 (PAR2 (HT-29 cells) [3]): 9.22
pIC50 ([4]; Homo sapiens): 5.89

Cc1n[nH]c(C(=O)N2CCN(C(=O)c3cc4nc(C5CCC(Cl)(Cl)CC5)cc(C(C)(C)C)c4o3)C(C)(C)C2)n1 [Example I-304]
pIC50 ([1]; Homo sapiens): < 5.70
pIC50 (PAR2 (HT-29 cells) [2]): 8.70
pIC50 (PAR2 (HT-29 cells) [3]): 8.55
pIC50 ([4]; Homo sapiens): < 5.70

CC(C)(C)c1cc(C2CCC(Cl)(Cl)CC2)nc2cc(C(=O)N3CCN(C(=O)[C@H]4C[C@@](C)(O)C4)CC3(C)C)oc12 [Example I-305]
pIC50 ([1]; Homo sapiens): < 5.70
pIC50 (PAR2 (HT-29 cells) [2]): 8.82
pIC50 (PAR2 (HT-29 cells) [3]): 8.52
pIC50 ([4]; Homo sapiens): < 5.70

CC1(C)CCC(c2cc(C(C)(C)C)c3oc(C(=O)N4CCN(C(=O)[C@H]5CC[C@](C)(C(=O)O)CC5)CC4(C)C)cc3n2)CC1 [Example I-306]
pIC50 ([1]; Homo sapiens): 5.74
pIC50 (PAR2 (HT-29 cells) [2]): 8.33
pIC50 (PAR2 (HT-29 cells) [3]): 7.77
pIC50 ([4]; Homo sapiens): 5.85

[2H]C([2H])([2H])N1CCN(C(=O)c2cc3nc(C4CCC(F)(F)CC4)cc(C(C)(C)C)c3o2)C(C)(C)C1=O [Example I-307]
pIC50 ([1]; Homo sapiens): < 5.70
pIC50 (PAR2 (HT-29 cells) [2]): 6.91
pIC50 (PAR2 (HT-29 cells) [3]): 6.68
pIC50 ([4]; Homo sapiens): < 5.70

CC(C)(C)c1cc(-c2ccc(F)cc2)nc2cc(C(=O)N3CCN(C(C)(C)C)C(=O)C3(C)C)oc12 [Example I-308]
pIC50 ([1]; Homo sapiens): < 5.70
pIC50 (PAR2 (HT-29 cells) [2]): 7.85
pIC50 (PAR2 (HT-29 cells) [3]): 7.43
pIC50 ([4]; Homo sapiens): < 5.70

Cc1cc(N2CCN(C(=O)c3cc4nc(C5CCC(C)(C)CC5)cc(C(C)(C)C)c4o3)C(C)(C)C2=O)n[nH]1 [Example I-309]
pIC50 ([1]; Homo sapiens): < 5.70
pIC50 (PAR2 (HT-29 cells) [2]): 7.49
pIC50 (PAR2 (HT-29 cells) [3]): 7.40
pIC50 ([4]; Homo sapiens): < 5.70

CC(C)(C)c1cc(C2CCC(F)(F)CC2)nc2cc(C(=O)N3CCN(c4cn[nH]c4)C(=O)C3(C)C)oc12 [Example I-310]
pIC50 ([1]; Homo sapiens): < 5.70
pIC50 (PAR2 (HT-29 cells) [2]): 7.21
pIC50 (PAR2 (HT-29 cells) [3]): 6.96
pIC50 ([4]; Homo sapiens): < 5.70

CC(C)(C)c1cc(C2CCC(F)(F)CC2)nc2cc(C(=O)N3CCN(C(=O)c4nnc[nH]4)CC3(C)C)oc12 [Example I-311]
pIC50 [1]: < 5.70
pIC50 (PAR2 (HT-29 cells) [2]): 7.09
pIC50 (PAR2 (HT-29 cells) [3]): 7.08
pIC50 [4]: < 5.70

CN1CCN(C(=O)c2cc3nc(C4CCC(F)(F)CC4)cc(C(C)(C)C)c3o2)C(C)(C)C1=O [Example I-312]
pIC50 ([1]; Homo sapiens): < 5.70
pIC50 (PAR2 (HT-29 cells) [2]): 6.77
pIC50 (PAR2 (HT-29 cells) [3]): 6.59
pIC50 ([4]; Homo sapiens): < 5.70

Cc1c[nH]nc1N1CCN(C(=O)c2cc3nc(C4CCC(C)(C)CC4)cc(C(C)(C)C)c3o2)C(C)(C)C1=O [Example I-313]
pIC50 ([1]; Homo sapiens): < 5.70
pIC50 (PAR2 (HT-29 cells) [2]): 7.12
pIC50 (PAR2 (HT-29 cells) [3]): 6.51
pIC50 ([4]; Homo sapiens): < 5.70

CC(C)(C)c1cc(-c2ccc(F)cc2)nc2cc(C(=O)N3CCN(C(=O)[C@H]4C[C@@](C)(O)C4)C(C)(C)C3)oc12 [Example I-314]
pIC50 ([1]; Homo sapiens): < 5.70
pIC50 (PAR2 (HT-29 cells) [2]): 6.72
pIC50 (PAR2 (HT-29 cells) [3]): 6.14
pIC50 ([4]; Homo sapiens): < 5.70
